Laboratory results published in patent US12410160B2 (Gilead Sciences, Inc., priority 2021, dated 2025).

Columns and labels:
human KHK-C = human KHK-C (Homo sapiens (Human), UniProt P50053); assay: KHK Biochemical Assay (IC50), ADP-Glo, KHK-C; conditions: ADP-Glo; average of at least two separate assays
Method in brief: (§1)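 ADP-Glo luminescence measured ADP made over a 4 h room-temperature reaction of ATP plus fructose, started after 30 min compound–enzyme pre-incubation. Buffer: 50 mM Hepes pH 7.4, 140 mM KCl, 5 mM MgCl2, 0.01% Triton-X. Enzyme was His-tagged, BL21 (DE3)-expressed, Ni-NTA-purified; compounds in 1:3 DMSO dilution series.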

[1] = molecular target: KHK-C expressed in NRK-52E cells (Homo sapiens (Human), UniProt P50053); assay: KHK-C Cell-based Assay (EC50), NRK CTG, fructose-mediated ATP-depletion
human KHK-A = human KHK-A (Homo sapiens (Human), UniProt P50053); assay: KHK Biochemical Assay (IC50), ADP-Glo, KHK-A; conditions: ADP-Glo; average of at least two separate assays
Method in brief: as §1

Chain of human KHK-C (P50053 whole entry): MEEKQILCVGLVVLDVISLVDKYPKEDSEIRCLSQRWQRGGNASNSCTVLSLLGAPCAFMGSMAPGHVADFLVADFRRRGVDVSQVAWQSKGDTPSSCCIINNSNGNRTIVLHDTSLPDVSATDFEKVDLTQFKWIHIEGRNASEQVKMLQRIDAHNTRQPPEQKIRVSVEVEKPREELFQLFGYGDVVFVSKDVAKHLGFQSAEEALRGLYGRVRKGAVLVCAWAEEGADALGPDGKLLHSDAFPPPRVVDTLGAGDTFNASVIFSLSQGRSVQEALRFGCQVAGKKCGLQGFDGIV
Chain of KHK-C expressed in NRK-52E cells (P50053 whole entry): as above
Chain of human KHK-A (P50053 other isoform, or with tags, fused parts or gaps): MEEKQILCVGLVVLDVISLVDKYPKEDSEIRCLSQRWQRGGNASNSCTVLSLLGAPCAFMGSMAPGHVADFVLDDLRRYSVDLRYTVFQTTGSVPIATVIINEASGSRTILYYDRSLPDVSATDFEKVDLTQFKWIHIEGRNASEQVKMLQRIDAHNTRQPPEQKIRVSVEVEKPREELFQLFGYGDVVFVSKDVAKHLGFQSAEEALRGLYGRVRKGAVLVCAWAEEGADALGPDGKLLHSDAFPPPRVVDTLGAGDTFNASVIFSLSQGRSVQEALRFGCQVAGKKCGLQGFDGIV

| Structure (SMILES) | IC50 (human KHK-C) | EC50 [1] | IC50 (human KHK-A) |
| --- | --- | --- | --- |
| C[C@H]1CCN1c1nc2c(c(-c3cnc(C(C)(C)O)s3)n1)CCC2 [Example 213, 2-[5-[2-[(2S)-2-methylazetidin-1-yl]-6,7-dihydro-5H-cyclopenta[d]pyrimidin-4-yl]thiazol-2-yl]propan-2-ol] | 33.3 nM | 52.5 nM | 52.6 nM |
| C[C@H]1CCN1c1nc2c(c(-c3cccc(C(=O)NCC(N)=O)c3)n1)CCC2 [Example 216, N-(2-amino-2-oxo-ethyl)-3-[2-[(2S)-2-methylazetidin-1-yl]-6,7-dihydro-5H-cyclopenta[d]pyrimidin-4-yl]benzamide] | 38.4 nM | 390 nM | 37.8 nM |
| C[C@H]1CCN1c1nc2c(c(-c3cccc(C(=O)NCCC(=O)O)c3)n1)CCC2 [Example 217, 3-[[3-[2-[(2S)-2-methylazetidin-1-yl]-6,7-dihydro-5H-cyclopenta[d]pyrimidin-4-yl]benzoyl]amino]propanoic acid] | 90.3 nM | > 5000 nM | 130 nM |
| C[C@H]1CCN1c1nc2c(c(-c3cccc(C(=O)NCCS(N)(=O)=O)c3)n1)CCC2 [Example 219, 3-[2-[(2S)-2-methylazetidin-1-yl]-6,7-dihydro-5H-cyclopenta[d]pyrimidin-4-yl]-N-(2-sulfamoylethyl)benzamide] | 13.1 nM | 283 nM | 17.2 nM |
| C[C@H]1CCN1c1nc2c(c(-c3cccc(C(=O)NCCC(N)=O)c3)n1)CCC2 [Example 220, N-(3-amino-3-oxo-propyl)-3-[2-[(2S)-2-methylazetidin-1-yl]-6,7-dihydro-5H-cyclopenta[d]pyrimidin-4-yl]benzamide] | 57.3 nM | 190 nM | 58.6 nM |
| C[C@H]1CCN1c1nc2c(c(-c3cnc(CN)s3)n1)CCC2 [Example 221, (S)-(5-(2-(2-methylazetidin-1-yl)-6,7-dihydro-5H-cyclopenta[d]pyrimidin-4-yl)thiazol-2-yl)methanamine] | 17.2 nM | 94.4 nM | 17.8 nM |
| C[C@H]1CCN1c1nc2c(c(-c3cccc(CNC(=O)CCO)c3)n1)CCC2 [Example 227, 3-hydroxy-N-[[3-[2-[(2S)-2-methylazetidin-1-yl]-6,7-dihydro-5H-cyclopenta[d]pyrimidin-4-yl]phenyl]methyl]propanamide] | 70.3 nM | 265 nM | 75.6 nM |
| C[C@H]1CCN1c1nc2c(c(-c3cccc(CNC(=O)CO)c3)n1)CCC2 [Example 231, 2-hydroxy-N-[[3-[2-[(2S)-2-methylazetidin-1-yl]-6,7-dihydro-5H-cyclopenta[d]pyrimidin-4-yl]phenyl]methyl]acetamide] | 50.6 nM | 199 nM | 56.7 nM |
| C[C@H]1CCN1c1nc2c(c(-c3ccc4c(c3)S(=O)(=O)CNC4=O)n1)CCC2 [Example 234, 7-[2-[(2S)-2-methylazetidin-1-yl]-6,7-dihydro-5H-cyclopenta[d]pyrimidin-4-yl]-1,1-dioxo-2,3-dihydro-1lambda6,3-benzothiazin-4-one] | 18.9 nM | 56.4 nM | 39.1 nM |
| C[C@H]1CCN1c1nc2c(c(-c3ccc4c(c3)C(=O)NC4=O)n1)CCC2 [Example 240, 5-[2-[(2S)-2-methylazetidin-1-yl]-6,7-dihydro-5H-cyclopenta[d]pyrimidin-4-yl]isoindoline-1,3-dione] | 173 nM | 4980 nM | 183 nM |
| C[C@H]1CCN1c1nc2c(c(-c3cccc(C(N)C(F)(F)F)c3)n1)CCC2 (stereo partly drawn) [Example 246, 2,2,2-trifluoro-1-[3-[2-[(2S)-2-methylazetidin-1-yl]-6,7-dihydro-5H-cyclopenta[d]pyrimidin-4-yl]phenyl]ethanamine] | 163 nM | 422 nM | 360 nM |
| C[C@H]1CCN1c1nc2c(c(-c3ccc4[nH]c(=O)[nH]c4c3)n1)CCC2 [Example 247, 5-[2-[(2S)-2-methylazetidin-1-yl]-6,7-dihydro-5H-cyclopenta[d]pyrimidin-4-yl]-1,3-dihydrobenzimidazol-2-one] | 49.6 nM | 107 nM | 50 nM |
| C[C@H]1CCN1c1nc2c(c(-c3ccc4c(c3)CC(=O)N4)n1)CCC2 [Example 248, 5-[2-[(2S)-2-methylazetidin-1-yl]-6,7-dihydro-5H-cyclopenta[d]pyrimidin-4-yl]indolin-2-one] | > 100 nM | 154 nM | 79.6 nM |
| C[C@H]1CCN1c1nc2c(c(-c3ccc(C45CC(C(=O)O)(C4)C5)cc3)n1)CCC2 [Example 249, 3-[4-[2-[(2S)-2-methylazetidin-1-yl]-6,7-dihydro-5H-cyclopenta[d]pyrimidin-4-yl]phenyl]bicyclo[1.1.1]pentane-1-carboxylic acid] | 96.3 nM | 517 nM | 105 nM |
| C[C@H]1CCN1c1nc2c(c(-c3ccc4[nH]c(=O)n(C)c4c3)n1)CCC2 [Example 251, 3-methyl-5-[2-[(2S)-2-methylazetidin-1-yl]-6,7-dihydro-5H-cyclopenta[d]pyrimidin-4-yl]-1H-benzimidazol-2-one] | 135 nM | 243 nM | 126 nM |
| C[C@H]1CCN1c1nc2c(c(-c3cccc(C4(C(=O)O)CC4)c3)n1)CCC2 [Example 253, 1-[3-[2-[(2S)-2-methylazetidin-1-yl]-6,7-dihydro-5H-cyclopenta[d]pyrimidin-4-yl]phenyl]cyclopropanecarboxylic acid] | 239 nM | 2770 nM | 204 nM |
| C[C@H]1CCN1c1nc2c(c(-c3cccc(C4(C(N)=O)CC4)c3)n1)CCC2 [Example 254, 1-[3-[2-[(2S)-2-methylazetidin-1-yl]-6,7-dihydro-5H-cyclopenta[d]pyrimidin-4-yl]phenyl]cyclopropanecarboxamide] | 517 nM | 607 nM | 600 nM |
| C[C@H]1CCN1c1nc2c(c(-c3ccc(C(O)C4(C#N)CC4)cc3)n1)CCC2 (stereo partly drawn) [Example 255, 1-[hydroxy-[4-[2-[(2S)-2-methylazetidin-1-yl]-6,7-dihydro-5H-cyclopenta[d]pyrimidin-4-yl]phenyl]methyl]cyclopropanecarbonitrile] | 65.9 nM | 70.7 nM | 49.8 nM |
| C[C@H]1CCN1c1nc2c(c(-c3cccc(OC(F)F)c3)n1)CCC2 [Example 258, 4-[3-(difluoromethoxy)phenyl]-2-[(2S)-2-methylazetidin-1-yl]-6,7-dihydro-5H-cyclopenta[d]pyrimidine] | 2850 nM | 525 nM | 2000 nM |
| C[C@H]1CCN1c1nc2c(c(-c3cnc4c(c3)NCCO4)n1)CCC2 [Example 263, 7-[2-[(2S)-2-methylazetidin-1-yl]-6,7-dihydro-5H-cyclopenta[d]pyrimidin-4-yl]-2,3-dihydro-1H-pyrido[2,3-b][1,4]oxazine] | 50 nM | 155 nM | 96.2 nM |

Second part, the compound after the results:

| IC50 (human KHK-C) | EC50 [1] | IC50 (human KHK-A) | Structure (SMILES) |
| --- | --- | --- | --- |
| 17.2 nM | 26.9 nM | 25.5 nM | C[C@H]1[C@@H](F)CN1c1nc2c(c(-c3ccc(C(N)=O)cc3)n1)CCC2 [Example 226] |
| 44.8 nM | 1630 nM | 46.1 nM | C[C@H]1CCN1c1nc2c(c(-c3ccc4ccc(C(=O)O)cc4c3)n1)CCC2 [Example 232, 7-[2-[(2S)-2-methylazetidin-1-yl]-6,7-dihydro-5H-cyclopenta[d]pyrimidin-4-yl]naphthalene-2-carboxylic acid] |
| > 5000 nM | > 5000 nM | > 5000 nM | CO[C@@H]1CN(c2nc3c(c(-c4ccc(C(N)=O)cc4)n2)CCC3)[C@H]1C [Example 235, 4-(2-((2S,3R)-3-methoxy-2-methylazetidin-1-yl)-6,7-dihydro-5H-cyclopenta[d]pyrimidin-4-yl)benzamide] |
| 67.8 nM | 102 nM | 149 nM | C[C@H]1CCN1c1nc2c(c(-c3cccc(CC(N)=O)c3)n1)CCC2 [Example 244, 2-[3-[2-[(2S)-2-methylazetidin-1-yl]-6,7-dihydro-5H-cyclopenta[d]pyrimidin-4-yl]phenyl]acetamide] |
| 80.3 nM | 374 nM | 73.6 nM | C[C@H]1CCN1c1nc2c(c(-c3ccc(CC(N)=O)cc3)n1)CCC2 [Example 245, 2-[4-[2-[(2S)-2-methylazetidin-1-yl]-6,7-dihydro-5H-cyclopenta[d]pyrimidin-4-yl]phenyl]acetamide] |
| 129 nM | 852 nM | 196 nM | C[C@H]1CCN1c1nc2c(c(-c3ccc(C45CC(C(N)=O)(C4)C5)cc3)n1)CCC2 [Example 250, 3-[4-[2-[(2S)-2-methylazetidin-1-yl]-6,7-dihydro-5H-cyclopenta[d]pyrimidin-4-yl]phenyl]bicyclo[1.1.1]pentane-1-carboxamide] |
| 946 nM | 1670 nM | 783 nM | C[C@H]1CCN1c1nc2c(c(-c3ccc(C4(C(N)=O)CC4)cc3)n1)CCC2 [Example 252, 1-[4-[2-[(2S)-2-methylazetidin-1-yl]-6,7-dihydro-5H-cyclopenta[d]pyrimidin-4-yl]phenyl]cyclopropanecarboxamide] |
| 262 nM | 161 nM | 519 nM | C[C@H]1CCN1c1nc2c(c(-c3ccc(C(O)C(F)F)cc3)n1)CCC2 (stereo partly drawn) [Example 256, 2,2-difluoro-1-[4-[2-[(2S)-2-methylazetidin-1-yl]-6,7-dihydro-5H-cyclopenta[d]pyrimidin-4-yl]phenyl]ethanol] |
| 128 nM | 185 nM | 201 nM | C[C@H]1CCN1c1nc2c(c(-c3ccc(C(O)CF)cc3)n1)CCC2 (stereo partly drawn) [Example 257, 2-fluoro-1-[4-[2-[(2S)-2-methylazetidin-1-yl]-6,7-dihydro-5H-cyclopenta[d]pyrimidin-4-yl]phenyl]ethanol] |
